Reference: ChEMBL document CHEMBL4739714, “Inhibitors of cyclin-dependent kinase 12 (cdk12) and uses thereof” (2020)
Calls of active or inactive are those of the source. The rule behind the calls is not given here.

Legend:
Assay type in all cases: cell-based
[1] = molecular target: Cyclin-dependent kinase 7 (Homo sapiens) (UniProt P50613); experiment: Inhibition of biotinylated-THZ1 binding to CDK7 in human Jurkat cells assessed as reduction in cyclin H pull down at 1 uM preincubated for 6 hrs followed by biotinylated-THZ1 addition by Western blotting based pull-down assay
[2] = molecular target: Cyclin-dependent kinase 12 (Homo sapiens) (UniProt Q9NYV4); experiment: Inhibition of biotinylated-THZ1 binding to CDK12 in human Jurkat cells assessed as reduction in cyclin K pull down at 1 uM preincubated for 6 hrs followed by biotinylated-THZ1 addition by Western blotting based pull-down assay
[3] = molecular target: Cyclin-dependent kinase 12/13 (Homo sapiens) (UniProt Q14004+Q9NYV4); experiment: Inhibition of biotinylated-THZ1 binding to CDK12/CDK13 in human Jurkat cells assessed as reduction in cyclin K pull down at 1 uM preincubated for 6 hrs followed by biotinylated-THZ1 addition by Western blotting based pull-down assay

Cyclin-dependent kinase 7 (Homo sapiens), sequence (P50613 whole entry): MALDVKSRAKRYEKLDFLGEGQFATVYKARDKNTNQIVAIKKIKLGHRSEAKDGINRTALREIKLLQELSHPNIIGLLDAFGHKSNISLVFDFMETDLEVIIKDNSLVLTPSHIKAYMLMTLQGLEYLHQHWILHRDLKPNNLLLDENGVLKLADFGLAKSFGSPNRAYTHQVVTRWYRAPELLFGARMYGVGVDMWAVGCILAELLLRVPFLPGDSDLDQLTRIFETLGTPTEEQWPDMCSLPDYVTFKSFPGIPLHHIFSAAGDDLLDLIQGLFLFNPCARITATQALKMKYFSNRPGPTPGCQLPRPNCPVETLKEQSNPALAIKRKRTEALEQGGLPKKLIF
Cyclin-dependent kinase 12 (Homo sapiens), sequence (Q9NYV4 whole entry, looked up): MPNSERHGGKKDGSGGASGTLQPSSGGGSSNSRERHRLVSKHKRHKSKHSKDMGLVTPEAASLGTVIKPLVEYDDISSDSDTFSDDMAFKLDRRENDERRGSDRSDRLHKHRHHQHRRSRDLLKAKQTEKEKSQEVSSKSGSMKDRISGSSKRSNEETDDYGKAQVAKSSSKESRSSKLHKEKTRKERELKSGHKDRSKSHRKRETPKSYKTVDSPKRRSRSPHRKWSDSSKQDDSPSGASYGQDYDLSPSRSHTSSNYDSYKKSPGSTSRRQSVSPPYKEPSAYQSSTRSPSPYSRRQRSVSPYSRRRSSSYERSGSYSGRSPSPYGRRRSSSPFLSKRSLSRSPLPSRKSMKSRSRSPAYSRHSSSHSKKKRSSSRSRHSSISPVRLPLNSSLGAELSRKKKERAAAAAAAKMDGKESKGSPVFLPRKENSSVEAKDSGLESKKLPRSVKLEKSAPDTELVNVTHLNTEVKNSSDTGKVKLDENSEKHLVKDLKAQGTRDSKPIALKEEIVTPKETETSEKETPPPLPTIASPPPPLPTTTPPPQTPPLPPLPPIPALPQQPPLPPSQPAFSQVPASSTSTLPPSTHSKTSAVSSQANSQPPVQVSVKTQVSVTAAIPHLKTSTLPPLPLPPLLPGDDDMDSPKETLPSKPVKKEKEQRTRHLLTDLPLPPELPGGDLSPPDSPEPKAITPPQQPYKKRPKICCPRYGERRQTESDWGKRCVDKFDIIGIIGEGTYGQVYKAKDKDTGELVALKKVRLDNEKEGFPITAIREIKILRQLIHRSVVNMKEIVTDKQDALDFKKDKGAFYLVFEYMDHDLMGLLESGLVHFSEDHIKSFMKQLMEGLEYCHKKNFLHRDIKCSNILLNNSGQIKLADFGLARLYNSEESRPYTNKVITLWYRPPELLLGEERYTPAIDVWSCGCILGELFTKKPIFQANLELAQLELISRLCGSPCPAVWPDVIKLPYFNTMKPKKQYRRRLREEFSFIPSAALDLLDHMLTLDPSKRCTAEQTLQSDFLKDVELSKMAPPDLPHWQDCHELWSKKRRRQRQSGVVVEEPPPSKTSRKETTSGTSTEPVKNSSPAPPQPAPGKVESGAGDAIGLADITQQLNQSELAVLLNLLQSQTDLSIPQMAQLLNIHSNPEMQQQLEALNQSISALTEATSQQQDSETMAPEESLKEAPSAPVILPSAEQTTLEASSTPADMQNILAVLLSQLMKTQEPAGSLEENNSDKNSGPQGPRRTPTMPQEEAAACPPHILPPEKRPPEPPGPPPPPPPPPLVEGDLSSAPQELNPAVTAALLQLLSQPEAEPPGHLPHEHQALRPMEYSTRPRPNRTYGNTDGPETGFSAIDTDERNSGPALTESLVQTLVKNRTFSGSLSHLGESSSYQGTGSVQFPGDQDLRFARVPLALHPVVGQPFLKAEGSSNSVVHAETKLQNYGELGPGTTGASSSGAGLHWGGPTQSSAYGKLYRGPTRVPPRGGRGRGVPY

inhibition [1]	inhibition [2]	inhibition [3]	SMILES
inactive	inactive		C=CC(=O)Nc1ccc(N2CCC[C@@H](Nc3ncc(Cl)c(-c4c[nH]c5ccccc45)n3)C2)cc1
inactive	inactive		CN(C)C/C=C/C(=O)Nc1ccc(N2CCC[C@@H](Nc3ncc(Cl)c(-c4c[nH]c5ccccc45)n3)C2)nc1
	inactive		C=CC(=O)Nc1ccc(O[C@@H]2CCC[C@@H](Nc3ncc(Cl)c(-c4c[nH]c5ccccc45)n3)C2)cc1
Active		Active	CN(C)C/C=C/C(=O)Nc1ccc(C(=O)Nc2cccc(Nc3ncc(Cl)c(-c4c[nH]c5ccccc45)n3)c2)cc1

Continued, compound first:

SMILES	inhibition [1]	inhibition [2]	inhibition [3]
CN(C)C/C=C/C(=O)Nc1ccc(C(=O)N2CCC[C@@H](Nc3ncc(Cl)c(-c4c[nH]c5ccccc45)n3)C2)nc1		inactive	
C=CC(=O)Nc1ccc(N2CCC[C@@H](Nc3ncc(Cl)c(-c4c[nH]c5ccccc45)n3)C2)nc1		inactive	
CN(C)C/C=C/C(=O)Nc1ccc(O[C@@H]2CCC[C@@H](Nc3ncc(Cl)c(-c4c[nH]c5ccccc45)n3)C2)cc1	inactive	inactive	Active
